{"source": "patent US6737383B1", "about": "“Herbicidal oxadiazolidines” (priority 1999, dated 2004)", "key": {"[1]": {"system": "Chenopodium album (CHEAL)", "test": "Test F preemergence, alone and in mixture with rimsulfuron, CHEAL", "format": "in vivo", "conditions": "21 days after treatment, 0-100 scale", "protocol": "(§1) Abutilon theophrasti (ABUTH), Chenopodium album (CHEAL), Amaranthus rudis (AMATA), Setaria faberii (SETFA), Panicum dichotomiflorum (PANDI), and Digitaria sanguinalis (DIGSA) were grown from seed in pots of an artificial potting mixture in a greenhouse. Compounds of the present invention were applied at 70 and 105 g ai/ha preemergence. Rimsulfuron was applied at 8.8 and 17.5 g ai/ha. Mixtures of the compounds of the present invention and rimsulfuron were also applied.\n(§2) Following application, the plants were maintained by watering as needed. A fertilizer solution of Peter's 20-20-20 (10 pounds/5 gallons of water) plus Sprint 330, a Iron Chelate micronutrient, (113.5 grams/5 gallons of water) was injected into the water with an Anderson fertilizer injection system to provide approximately 219 ppm of nitrogen with each watering. Artificial lighting was used to supplement natural light to produce a 14 hour photoperiod and: an additional one hour light period was used between 1:00 am to 2:00 am for a night interruption. Greenhouse temperatures were targeted for 27° C. in the day and 21° C. at night. At 21 days after treatment, all plants were evaluated for injury as compared to control plants that were sprayed only with non-phytotoxic solvent.\n(§3) Colby's equation was used to calculate the expected additive herbicidal effect of the mixtures of Compound 21 and the mixture partners listed above. […]"}, "[2]": {"system": "Spanishneedles", "test": "Test D Spanishneedles", "format": "in vivo, Bidens bipinnata", "conditions": "Postemergence, 0 to 100 scale"}, "[3]": {"system": "pitted morningglory", "test": "Test D pitted morningglory", "format": "in vivo, Ipomoea lacunosa", "conditions": "Postemergence, 0 to 100 scale"}, "[4]": {"system": "large crabgrass", "test": "Test D large crabgrass", "format": "in vivo, Digitaria sanguinalis", "conditions": "Postemergence, 0 to 100 scale"}, "[5]": {"system": "tall mallow", "test": "Test D tall mallow", "format": "in vivo, Malva sylvestris", "conditions": "Postemergence, 0 to 100 scale"}, "[6]": {"system": "Green foxtail", "test": "Test D green foxtail", "format": "in vivo", "conditions": "Postemergence, 0 to 100 scale, 0 no injury, 100 complete control"}, "[7]": {"system": "bermuda-grass", "test": "Test D bermudagrass", "format": "in vivo, Cynodon dactylon", "conditions": "Postemergence, 0 to 100 scale"}, "[8]": {"system": "goosegrass", "test": "Test D goosegrass", "format": "in vivo, Eleusine indica", "conditions": "Postemergence, 0 to 100 scale"}, "[9]": {"system": "common ragweed", "test": "Test D common ragweed", "format": "in vivo, Ambrosia elatior", "conditions": "Postemergence, 0 to 100 scale"}, "[10]": {"system": "maize hybrid P33G26", "test": "Test G maize injury with safener-treated seed", "conditions": "for Mean plant response rating, maize: 28 days after application", "outline": "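Maize hybrid P33G26 seed, treated with dichlormid, fenchlorazole-ethyl or naphthalic anhydride or left untreated, was sown in soil pots, then sprayed pre-emergence with several compound rates at 310 L/ha. Plants grew in a greenhouse (14 h day, about 27/24 °C day/night), with 4–5 replicates. Injury was scored visually against untreated controls 28 days after application.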"}, "[11]": {"system": "Setaria faberii (SETFA)", "test": "Test F preemergence, alone and in mixture with rimsulfuron, SETFA", "format": "in vivo", "conditions": "21 days after treatment, 0-100 scale", "protocol": "as §1, §2, §3"}, "[12]": {"system": "Johnson grass", "test": "Test D Johnson grass", "format": "in vivo, Sorghum halepense", "conditions": "Postemergence, 0 to 100 scale"}, "[13]": {"system": "Green foxtail", "test": "Test D green foxtail", "format": "in vivo", "conditions": "Rate 250 g/ha; Postemergence; 0 to 100 scale"}, "[14]": {"system": "Panicum dichotomiflorum (PANDI)", "test": "Test F preemergence, alone and in mixture with rimsulfuron, PANDI", "format": "in vivo", "conditions": "21 days after treatment, 0-100 scale", "protocol": "as §1, §2, §3"}, "[15]": {"system": "Digitaria sanguinalis (DIGSA)", "test": "Test F preemergence, alone and in mixture with rimsulfuron, DIGSA", "format": "in vivo", "conditions": "21 days after treatment, 0-100 scale", "protocol": "as §1, §2, §3"}, "[16]": {"system": "purple nutsedge", "test": "Test D purple nutsedge", "format": "in vivo, Cyperus rotundus", "conditions": "Postemergence, 0 to 100 scale"}, "[17]": {"conditions": "Alone: Cmpd. rate 70, Rimsulfuron 0"}, "[18]": {"conditions": "Alone: Cmpd. rate 105, Rimsulfuron 0"}, "[19]": {"conditions": "Rate 16 g/ha, 0 no injury, 100 complete control"}, "[20]": {"conditions": "Rate 32 g/ha, 0 no injury, 100 complete control"}, "[21]": {"conditions": "Rate 64 g/ha, 0 no injury, 100 complete control"}, "[22]": {"conditions": "Rate 125 g/ha, 0 no injury, 100 complete control"}}, "data": [{"smiles": "CC(C)N(C(=O)n1oc(=O)n(C(C)C)c1=O)c1ccc(F)cc1", "note": "[Compound 131]", "values": [{"measurement": "CHEAL Observed", "setting": "[1]; [17]", "result": 60, "unit": "%"}, {"measurement": "CHEAL Observed", "setting": "[1]; [18]", "result": 95, "unit": "%"}, {"measurement": "Plant response rating, Spanishneedles", "setting": "[2]; [19]", "result": 0}, {"measurement": "Plant response rating, Spanishneedles", "setting": "[2]; [20]", "result": 0}, {"measurement": "Spanishneedles plant response rating", "setting": "[2]; [21]", "result": 0}, {"measurement": "Spanishneedles plant response rating", "setting": "[2]; [22]", "result": 70}, {"measurement": "Plant response rating, Spanishneedles", "setting": "[2]; Rate 250 g/ha", "result": 60}, {"measurement": "Plant response rating, P. morninglory", "setting": "[3]; [19]", "result": 0}, {"measurement": "Plant response rating, P. morninglory", "setting": "[3]; [20]", "result": 0}, {"measurement": "Plant response rating, P. morninglory", "setting": "[3]; [21]", "result": 0}, {"measurement": "Plant response rating, P. morninglory", "setting": "[3]; [22]", "result": 0}, {"measurement": "Plant response rating, P. morninglory", "setting": "[3]; Rate 250 g/ha", "result": 100}, {"measurement": "Plant response rating Large crabgrass", "setting": "[4]; [19]", "result": 90}, {"measurement": "Plant response rating Large crabgrass", "setting": "[4]; [20]", "result": 100}, {"measurement": "Plant response rating Large crabgrass", "setting": "[4]; [21]", "result": 100}, {"measurement": "Plant response rating Large crabgrass", "setting": "[4]; [22]", "result": 100}, {"measurement": "Plant response rating Large crabgrass", "setting": "[4]; Rate 250 g/ha", "result": 100}, {"measurement": "Plant response rating, Tall Mallow", "setting": "[5]; [19]", "result": 0}, {"measurement": "Plant response rating, Tall Mallow", "setting": "[5]; [20]", "result": 30}, {"measurement": "Tall Mallow plant response rating", "setting": "[5]; [21]", "result": 40}, {"measurement": "Tall Mallow plant response rating", "setting": "[5]; [22]", "result": 90}, {"measurement": "Plant response rating, Tall Mallow", "setting": "[5]; Rate 250 g/ha", "result": 100}, {"measurement": "Plant response rating, Green foxtail", "setting": "[6]; Rate 16 g/ha", "result": 0}, {"measurement": "Plant response rating, Green foxtail", "setting": "[6]; Rate 32 g/ha", "result": 60}, {"measurement": "Plant response rating, Bermudagrass", "setting": "[7]; [19]", "result": 30}, {"measurement": "Plant response rating, Bermudagrass", "setting": "[7]; [20]", "result": 90}, {"measurement": "Plant response rating, Bermudagrass", "setting": "[7]; [21]", "result": 100}, {"measurement": "Plant response rating, Bermudagrass", "setting": "[7]; [22]", "result": 100}, {"measurement": "Plant response rating, Bermudagrass", "setting": "[7]; Rate 250 g/ha", "result": 100}, {"measurement": "Plant response rating, Goosegrass", "setting": "[8]; [19]", "result": 90}, {"measurement": "Plant response rating, Goosegrass", "setting": "[8]; [20]", "result": 100}, {"measurement": "Plant response rating, Goosegrass", "setting": "[8]; [21]", "result": 100}, {"measurement": "Plant response rating, Goosegrass", "setting": "[8]; [22]", "result": 100}, {"measurement": "Plant response rating, Goosegrass", "setting": "[8]; Rate 250 g/ha", "result": 100}, {"measurement": "Plant response rating, C. ragweed", "setting": "[9]; [19]", "result": 0}, {"measurement": "Plant response rating, C. ragweed", "setting": "[9]; [20]", "result": 0}, {"measurement": "Plant response rating, C. ragweed", "setting": "[9]; [21]", "result": 0}, {"measurement": "Plant response rating, C. ragweed", "setting": "[9]; [22]", "result": 90}, {"measurement": "Plant response rating, C. ragweed", "setting": "[9]; Rate 250 g/ha", "result": 100}, {"measurement": "Mean plant response rating, maize", "setting": "[10]; Safener Dichlormid (seed treatment), Rate 70 g ai/ha", "result": 3, "unit": "percent control"}, {"measurement": "Mean plant response rating, maize", "setting": "[10]; Safener Dichlormid (seed treatment), Rate 140 g ai/ha", "result": 3, "unit": "percent control"}, {"measurement": "Mean plant response rating, maize", "setting": "[10]; Safener Dichlormid (seed treatment), Rate 280 g ai/ha", "result": 3, "unit": "percent control"}, {"measurement": "Mean plant response rating, maize", "setting": "[10]; Safener Dichlormid (seed treatment), Rate 560 g ai/ha", "result": 40, "unit": "percent control"}, {"measurement": "Mean plant response rating, maize", "setting": "[10]; Safener Fenchlorazole-ethyl (seed treatment), Rate 70 g ai/ha", "result": 85, "unit": "percent control"}, {"measurement": "Mean plant response rating, maize", "setting": "[10]; Safener Fenchlorazole-ethyl (seed treatment), Rate 140 g ai/ha", "result": 91, "unit": "percent control"}, {"measurement": "Mean plant response rating, maize", "setting": "[10]; Safener Fenchlorazole-ethyl (seed treatment), Rate 280 g ai/ha", "result": 92, "unit": "percent control"}, {"measurement": "Mean plant response rating, maize", "setting": "[10]; Safener Fenchlorazole-ethyl (seed treatment), Rate 560 g ai/ha", "result": 96, "unit": "percent control"}, {"measurement": "Mean plant response rating, maize", "setting": "[10]; Safener None, Rate 70 g ai/ha", "result": 80, "unit": "percent control"}, {"measurement": "Mean plant response rating, maize", "setting": "[10]; Safener None, Rate 140 g ai/ha", "result": 88, "unit": "percent control"}, {"measurement": "Mean plant response rating, maize", "setting": "[10]; Safener None, Rate 280 g ai/ha", "result": 91, "unit": "percent control"}, {"measurement": "Mean plant response rating, maize", "setting": "[10]; Safener None, Rate 560 g ai/ha", "result": 95, "unit": "percent control"}, {"measurement": "Mean plant response rating, maize", "setting": "[10]; Safener naphthalic anhydride (seed treatment), Rate 140 g ai/ha", "result": 0, "unit": "percent control"}, {"measurement": "Injury to maize", "setting": "[10]; absence of any safener, rates ranging from 70 to 560 g/ha", "result": "severely injurious to maize"}, {"measurement": "SETFA Observed", "setting": "[11]; [17]", "result": 35, "unit": "%"}, {"measurement": "SETFA Observed", "setting": "[11]; [18]", "result": 65, "unit": "%"}, {"measurement": "Plant response rating Johnsongrass", "setting": "[12]; [19]", "result": 0}, {"measurement": "Plant response rating Johnsongrass", "setting": "[12]; [20]", "result": 0}, {"measurement": "Plant response rating Johnsongrass", "setting": "[12]; [21]", "result": 30}, {"measurement": "Plant response rating Johnsongrass", "setting": "[12]; [22]", "result": 60}, {"measurement": "Plant response rating Johnsongrass", "setting": "[12]; Rate 250 g/ha", "result": 100}, {"measurement": "Plant response rating, Green foxtail", "setting": "[13]", "result": 100}, {"measurement": "PANDI Observed", "setting": "[14]; [17]", "result": 100, "unit": "%"}, {"measurement": "PANDI Observed", "setting": "[14]; [18]", "result": 95, "unit": "%"}, {"measurement": "DIGSA Observed", "setting": "[15]; [17]", "result": 100, "unit": "%"}, {"measurement": "DIGSA Observed", "setting": "[15]; [18]", "result": 100, "unit": "%"}, {"measurement": "Plant response rating, Purple nutsedge", "setting": "[16]; [19]", "result": 0}, {"measurement": "Plant response rating, Purple nutsedge", "setting": "[16]; [20]", "result": 0}, {"measurement": "Purple nutsedge plant response rating", "setting": "[16]; [21]", "result": 0}, {"measurement": "Purple nutsedge plant response rating", "setting": "[16]; [22]", "result": 30}, {"measurement": "Plant response rating, Purple nutsedge", "setting": "[16]; Rate 250 g/ha", "result": 100}]}]}
